Laboratory results taken from patent US11007271B2, “Anticancer drug conjugates” (Ariel Scientific Innovations Ltd., priority 2016, dated 2021).
Entries after “also recorded” stand apart in the source; their conditions may differ.

Columns and labels:
[1] = system: PC-3 (human prostate cancer); test: XTT cell growth assay, PC-3; type: cell-based; details: PC-3 cells; 5 to 25 μM; 24 and 48 hours incubation
Description: (§1) The tumors cell lines used in this study included PC-3 (human prostate cancer), WM-266-4 cell (human metastatic melanoma), MDA-MB 231 (human breast cancer) and A172 (glioblastoma). […] The benign fibroblasts were tolerable to this conjugate, accentuating its potential as anticancer candidate. At the end of the culture period, cell growth was estimated by XTT assay. After 4 hours incubation of the cells with the XTT reagent, optical density (OD) of the reduced XTT product was then measured at 480 and 680 nm. Percentage of growth inhibition by a test compound was calculated by comparison of the treated culture versus a control culture (free of any compound). The result shown for each concentration point represents the mean+/−standard error calculated from 3 different experiments. In each experiment the compounds were tested in triplicates.

[2] = system: WM-266-4 cell (human metastatic melanoma); test: XTT cell growth assay, WM-266-4; type: cell-based; details: WM-266-4 cells; 5 to 25 μM; 24 and 48 hours incubation
Description: as §1

[3] = system: MDA-MB 231 (human breast cancer); test: XTT cell growth assay, MDA-MB 231; type: cell-based; details: MDA-MB 231 cells; 5 to 25 μM; 24 hours incubation (FIGS. 1E, 1F)
Description: as §1

A172 (glioblastoma) = test: XTT cell growth assay, A172; type: cell-based; details: A172 cells; 5 to 25 μM
Description: as §1

benign fibroblasts = test: In vitro cytotoxicity on benign fibroblasts; type: cell-based
Description: as §1

[4] = system: primary fibroblast (FB) cells; test: Annexin V-FITC/PI flow cytometry detection of apoptotic/necrotic stages, fibroblasts; type: cell-based; details: 10 μM, compared to cancer cells
Description: Detection of apoptotic/necrotic stages of tumor cells was examined by Annexin V-FITC/PI apoptosis detection kit (MEBCYTO). Viable cells are negative for staining of either Annexin V or PI. Early apoptotic stage indicated with positive Annexin V and negative PI, whereas late-apoptotic and necrotic stages characterized by high PI signal.
FIGS. 3A-C present flow cytometry analysis of fibroblast cells treated with 10 μM of chimera 358 for 2 hours (FIG. 3A), 4 hours (FIG. 3B) and 8 hours (FIG. 3C), showing detection of apoptotic/necrotic stages of the cells.

[5] = system: WM-266.4 human melanoma xenograft; test: Experiment 1: human melanoma model mice, daily IP injection for 7 days; type: in vivo
Description: (§2) In one experiment (Experiment 1), 14 human melanoma model mice (immune-deficient xenograft) were treated daily for 7 days by IP injection with of Chimera 358 followed by 2 days of observation according to the following groups: 4 control mice treated with saline, 5 mice treated with 25 mg and 5 mice treated with 10 mg.

[6] = system: WM-266.4 human melanoma xenograft; test: Experiment 2: human melanoma model mice, IP injection 3 times a week; type: in vivo; details: for WM-266.4 cell proliferation (tumor size) in vivo: IP 3 times a week
Description: (§3) In another experiment (Experiment 2), 13 human melanoma model mice were treated 3 times a week by IP injection with of Chimera 358 followed by 2 days of observation according to the following groups: 3 control mice received saline, 5 mice with 5 mg and 5 mice with 10 mg. The treatment was started two weeks after grafting, when tumor development has started.

[7] = Body weight monitoring, Experiment 1; type: in vivo, mice; details: 25 mg group; IP daily for 7 days
Description: as §2
FIG. 6 presents the results of the body weight monitoring of 14 mice that undergone the treatment described in Experiment 1.

[8] = Body weight monitoring, Experiment 2; type: in vivo, mice; details: 5 mg group; IP 3 times a week
Description: as §3
FIG. 7 presents the results of the body weight monitoring of 13 mice that undergone the treatment described in Experiment 2.

CN(C)CCN1C(=O)c2cccc3cc(NC(=O)CCCc4ccc(N(CCCl)CCCl)cc4)cc(c23)C1=O [Chimera 358, 4-(4-(bis(2-chloroethyl)amino)phenyl)-N-(2-(2-(dimethylamino)ethyl)-1,3-dioxo-2,3-dihydro-1H-benzo[de]isoquinolin-5-yl)butanamide]
inhibition of cancer cell growth / cell viability (XTT) [1]: remarkable inhibition of cancer cell growth; also recorded: notable cell toxicity
inhibition of cancer cell growth / cell viability (XTT) [2]: remarkable inhibition of cancer cell growth; also recorded: notable cell toxicity
inhibition of cancer cell growth / cell viability (XTT) [3]: remarkable inhibition of cancer cell growth; also recorded: notable cell toxicity
inhibition of cancer cell growth (XTT) (A172 (glioblastoma)): remarkable inhibition of cancer cell growth
effect on benign fibroblasts (benign fibroblasts): tolerable
cell death (apoptotic/necrotic stages) [4]: moderate
survival ([5]; 10 mg group (5 mice), IP daily for 7 days): one mouse
WM-266.4 cell proliferation (tumor size) in vivo ([5]; 10 mg group, after four weeks of the treatment): notable decrease in tumor size
WM-266.4 cell proliferation (tumor size) in vivo ([5]; mice receiving the treatment (25 mg, 10 mg) versus saline control): grew to a much lesser extent
WM-266.4 cell proliferation (tumor size) in vivo ([6]; 5 mg group): kept growing
survival ([6]; 10 mg group (5 mice), IP three times weekly): one mouse
WM-266.4 cell proliferation (tumor size) in vivo ([6]; 10 mg group): grew to a much lesser extent
body weight [7]: loss of body weight
body weight [8]: maintained their body weight
